LC retention time data for 17 molecules are collected here from the RepoRT retention time repository (doi:10.1016/j.foodchem.2021.129757).

What all share (settings): stereoisomer not certain
Data set [1] can be described thus: Other, Phenomenex Kinetex PFP, 100 × 4.6 mm, 2.6 µm, 35 °C, 1.5 mL/min, estimated dead time 0.71 min; A: water + 0.1% trifluoroacetic acid, pH 2; B: acetonitrile + 0.1% trifluoroacetic acid, pH 2; gradient (min/%B) 0/1 7/7.5 14/7.6 17/10 18.5/12 20/12.5 24/30 25/90 25.1/1 32/1.
The nature of data set [2]: RP, Phenomenex Synergi Hydro-RP, 250 × 2 mm, 4 µm, 25 °C, 0.2 mL/min, estimated dead time 2.5 min; A: water + 0.1% formic acid, pH 3; B: acetonitrile + 0.1% formic acid, pH 3; gradient (min/%B) 0/0.5 7/0.5 12/12.5 25/16.3 47/35 48/65 50/65 50.1/0.5.
Data set [3] is described as follows: RP, Phenomenex Luna Omega Polar C18, 100 × 2.1 mm, 1.6 µm, 40 °C, 0.5 mL/min, estimated dead time 0.44 min; A: water + 0.5% formic acid; B: acetonitrile + 0.5% formic acid; gradient (min/%B) 0/5 3/50 3.1/100 5/100 5.1/5 7/5.
The nature of data set [4]: RP, 50 × 0.5 mm, 2.7 µm, 35 °C, 0.01 mL/min, estimated dead time 0.62 min; A: water + 0.1% formic acid, pH 3; B: acetonitrile + 0.1% formic acid, pH 3; gradient (min/%B) 0/5 12/95 14/95 16/5.
Data set [5] can be described thus: RP, Agilent InfinityLab Poroshell 120 EC-C18, 100 × 3 mm, 2.7 µm, 25 °C, 0.4 mL/min, estimated dead time 1.1 min; A: water + 0.1% formic acid, pH 3; B: acetonitrile + 0.1% formic acid, pH 3; gradient (min/%B) 0/5 10/25 20/40 24/90 25/90 26/5 30/5.
Data set [6] can be described thus: RP, 100 × 0.5 mm, 2.7 µm, 45 °C, 0.015 mL/min, estimated dead time 0.83 min; A: water + 0.9% formic acid; B: acetonitrile + 0.9% formic acid; gradient (min/%B) 0/1 0.5/1 4/95 4.5/1 5/1.
A short description of data set [7]: RP, Phenomenex Synergi Hydro-RP, 150 × 2 mm, 4 µm, 30 °C, 0.5 mL/min, estimated dead time 0.6 min; A: water + 0.1% formic acid, pH 3; B: acetonitrile + 0.1% formic acid, pH 3; gradient (min/%B) 0/5 1/5 35/45 40/100 45/100.
Data set [8] in a line: RP, Phenomenex Luna C18, 150 × 4.6 mm, 3 µm, 25 °C, 0.5 mL/min, estimated dead time 3.2 min; A: water + 0.1% formic acid, pH 3; B: acetonitrile + 0.1% formic acid, pH 3; gradient (min/%B) 0/0 30/30 35/40 50/80 52/80 60/0 65/0.
Data set [9] is described as follows: RP, Agilent ZORBAX Eclipse XDB-C18, 100 × 2.1 mm, 1.8 µm, 50 °C, 0.4 mL/min, estimated dead time 0.55 min; A: water + 0.1% formic acid, pH 3; B: methanol + 0.1% formic acid, pH 3; gradient (min/%B) 0/2 10/100 14.5/100 14.51/2 16.5/2.
The nature of data set [10]: Other, Phenomenex Kinetex PFP, 100 × 4.6 mm, 5 µm, 45 °C, 0.6 mL/min, estimated dead time 1.8 min; A: water + 0.1% trifluoroacetic acid, pH 2; B: methanol; gradient (min/%B) 0/40 20/72 21/40.
Data set [11] is described as follows: RP, Merck LiChrospher RP-18, 250 × 4 mm, 5 µm, 35 °C, 0.3 mL/min, estimated dead time 6.7 min; A: water + 0.5% formic acid; B: acetonitrile + 0.5% formic acid; gradient (min/%B) 0/5 10/5 30/15 45/20 65/20 95/54 110/63 115/5 135/5.
A short description of data set [12]: RP, Waters ACQUITY UPLC BEH Shield RP18, 150 × 2.1 mm, 1.7 µm, 40 °C, 0.4 mL/min, estimated dead time 0.83 min; A: water + 0.1% formic acid, pH 3; B: acetonitrile + 0.1% formic acid, pH 3; gradient (min/%B) 0/0 30/50 31/100 37/100 37.1/0.
Data set [13] in a line: RP, Merck Supelco SUPELCOSIL LC-C18, 250 × 4.6 mm, 5 µm, 40 °C, 1 mL/min, estimated dead time 2.6 min; A: water + 0.1% trifluoroacetic acid, pH 2; B: acetonitrile + 0.1% trifluoroacetic acid, pH 2; gradient (min/%B) 0/5 45/35 47/75 49/35 50/5.
The nature of data set [14]: RP, Waters ACQUITY UPLC HSS T3, 100 × 2.1 mm, 1.8 µm, 30 °C, 0.4 mL/min, estimated dead time 0.55 min; A: water + 0.1% formic acid, pH 3; B: acetonitrile + 0.1% formic acid, pH 3; gradient (min/%B) 0/0 2/0 15/100 22/100 22.1/0 26/0.
Data set [15] is described as follows: RP, Waters ACQUITY UPLC BEH C18, 100 × 2.1 mm, 1.7 µm, 65 °C, 0.4 mL/min, estimated dead time 0.55 min; A: water + 0.1% formic acid, pH 3; B: 80% acetonitrile + 20% acetone + 0.1% formic acid, pH 3; gradient (min/%B) 0/0 5/100 5.5/0 6/0.
Data set [16] in a line: RP, Phenomenex Luna Omega Polar C18, 100 × 2.1 mm, 1.6 µm, 40 °C, 0.5 mL/min, estimated dead time 0.44 min; A: water + 0.1% formic acid + 10 mM ammonium formate; B: acetonitrile; gradient (min/%B) 0/5 8/20 10/100 12/100 12.1/5 14/5.
Data set [17] in a line: RP, Waters ACQUITY UPLC BEH Shield RP18, 100 × 2.1 mm, 1.7 µm, 30 °C, 0.6 mL/min, estimated dead time 0.37 min; A: water + 0.1% formic acid, pH 3; B: acetonitrile + 0.1% formic acid, pH 3; gradient (min/%B) 0/0 2/0 7/10 22/95 22.1/0 26/0.
The nature of data set [18]: RP, Agilent ZORBAX RRHD Eclipse Plus C18, 50 × 2.1 mm, 1.8 µm, 30 °C, 0.4 mL/min, estimated dead time 0.28 min; A: water + 0.1% formic acid, pH 3; B: acetonitrile + 0.1% formic acid, pH 3; gradient (min/%B) 0/1 5/10 8/25 9.1/99 10/99 12/1.
Data set [19] can be described thus: RP, 150 × 2.1 mm, 2.6 µm, 40 °C, 0.35 mL/min, estimated dead time 0.94 min; A: water + 0.1% formic acid, pH 3; B: acetonitrile + 0.1% formic acid, pH 3; gradient (min/%B) 0/0 1/0 12.5/100 14/100 14.2/0 15/0.
Data set [20] can be described thus: RP, 150 × 2.1 mm, 2.6 µm, 40 °C, 0.35 mL/min, estimated dead time 0.94 min; A: water + 0.1% formic acid, pH 3; B: acetonitrile + 0.1% formic acid, pH 3; gradient (min/%B) 0/0 1/5 7/45 8.5/80 10.5/80 11/5 12/5.
Data set [21] is described as follows: RP, Agilent ZORBAX RRHD Eclipse Plus C18, 50 × 2.1 mm, 1.8 µm, 30 °C, 0.4 mL/min, estimated dead time 0.28 min; A: water + 0.1% formic acid, pH 3; B: acetonitrile + 0.1% formic acid, pH 3; gradient (min/%B) 0/1 5/10 8/25 9.1/99 10/99 12/99.
The nature of data set [22]: RP, Waters Atlantis T3, 100 × 2.1 mm, 3 µm, 40 °C, 0.3 mL/min, estimated dead time 0.73 min; A: water + 0.1% trifluoroacetic acid, pH 2; B: acetonitrile + 0.1% trifluoroacetic acid, pH 2; gradient (min/%B) 0/10 1/10 6/40 7/50 8/50 14/70 16/80 20/10 25/10.

Each structure is given as a SMILES string.

In the case of `O=C(O)c1c(O)cc(O)cc1O` [2,4,6-trihydroxybenzoic acid], the LC retention time in data set [1] is 9.72 min; in [2] it was 15.9 min.
In the case of `Cc1cccc(C(=O)NCC(=O)O)c1` [3-methylhippuric acid], in data set [1], the LC retention time is 14.8 min.
As for `Oc1ccc(C=Cc2cc(O)cc(O)c2)cc1` [Resveratrol], the LC retention time in data set [3] was 2.96 min; in data set [4], 5.18 min; in data set [5] it was 14.7 min; in data set [6], 2.88 min; in data set [7] it was 20 min; in data set [8], 38.8 min. For the same molecule, the LC retention time is 5.24 min in data set [9]; 10.8 min in [10]; 85.7 min in [11]; 17.9 min in data set [12]; 31.6 min in data set [13]; 10.4 min in data set [14]. Besides, the results for the LC retention time in data set [15], in data set [16] and in [17] were 2.48 min, 9.3 min and 14.7 min, respectively.
For `COC(=O)c1cc(O)c(O)c(O)c1` [Methyl 3,4,5-trihydroxybenzoate], the LC retention time in data set [1] was 8.64 min.
Consider `O=c1ccc2ccc(O)c(O)c2o1` [7,8-Dihydroxycoumarin], for which the LC retention time in data set [1] was 12 min; in data set [18], 6.14 min; in [19], 4.84 min; in data set [20], 4.64 min.
On to `COC(=O)c1ccc(O)c(O)c1` [Methyl 3,4-dihydroxybenzoate], for which the LC retention time in [1] is 15.3 min.
On to `O=Cc1c(O)cc(O)cc1O` [Phloroglucinol aldehyde], for which the values for the LC retention time in [1] and in data set [2] were 18.5 min and 27.6 min, respectively.
With `Oc1cc(O)c2cc(O)c(-c3ccc(O)c(O)c3)[o+]c2c1` [Cyanidin], the LC retention time is 3.17 min in data set [3]; 5.63 min in data set [5]; 3.19 min in data set [6]; 3.52 min in data set [9]; 10.8 min in data set [10]; 29.1 min in [13].
Take `COc1ccc(C(=O)O)cc1` [p-anisic acid]: the LC retention time in [1] is 20.6 min; in [2] it was 39.1 min.
With `COc1cccc(O)c1C(=O)O` [6-Methoxysalicyclic acid], the LC retention time in data set [1] is 22.1 min.
In the case of `COc1cc2ccc(=O)oc2cc1O` [Scopoletin], the values for the LC retention time in data set [1], in data set [19] and in [20] were 20.4 min, 5.86 min and 5.8 min, respectively.
Take `O=C(O)CC(=O)O` [Malonic acid]: the LC retention time in data set [1] was 1.52 min.
As to `COC(=O)c1ccc(O)c(OC)c1` [Methyl vanillate], the LC retention time in [1] was 23 min; in data set [9], 5.37 min.
Regarding `O=C(O)c1cc(O)cc(O)c1` [3,5-Dihydroxybenzoic acid], the LC retention time in [1] is 4.93 min; in data set [21] it was 2.82 min; in data set [18], 4.25 min.
In the case of `Cc1ccc(C(=O)NCC(=O)O)cc1` [4-methylhippuric acid], the LC retention time in data set [1] is 14.5 min.
For the molecule `O=C(C=Cc1ccc(O)c(O)c1)OC(Cc1ccc(O)c(O)c1)C(=O)O` (stereo unspecified) [Rosmarinic acid], the LC retention time in [4] is 4.8 min; in [5], 11.5 min; in data set [6], 2.28 min; in data set [7], 18.4 min; in data set [22] it was 8.18 min; in [8], 30 min. In addition, the LC retention time in data set [9] is 5.41 min; in data set [10], 9.57 min; in data set [11], 79.8 min; in data set [12], 14.6 min; in [13], 31 min; in data set [14], 9.87 min. Besides, the LC retention time is 39.2 min in data set [2], 8.46 min in data set [16] and 13.7 min in data set [17].
`O=Cc1ccc(O)cc1O` [2,4-dihydroxybenzaldehyde]: in [1], the LC retention time is 14.7 min.
